This is an account of results in ChEMBL document CHEMBL6134780, “Halogenated retinoid derivatives as dual RARα and RXRα modulators for treating acute promyelocytic leukemia cells” (Eur J Med Chem, 2024).

SMILES strings stand for the structures. The source made the active and inactive calls. The rule behind the calls is not given here.

The test system of test [1] is ATRA-resistant NB4-LR2. The test is described as follows: Cell cycle arrest in human ATRA-resistant NB4-LR2 cells assessed as increase in PLK1 expression at 2 uM incubated for 3 to 24 hrs by Western blot analysis. The following applies: time 3-24 hrs. It counts as functional, cell-based. On the technique in general: A western blot detects proteins with antibodies after separation by electrophoresis.

The subject of test [2] is NB-4. The test can be described thus: Cell cycle arrest in human NB4 cells assessed as accumulation of cells at G0/G1 phase at 0.5 uM incubated for 6 days for DAPI staining based flow cytometric analysis (reference value: 52 %). It counts as functional. The following applies: time 6 day.
For test [3], the system named is K562. The test can be described thus: Induction of apoptosis in human K562 cells assessed as necrotic cells at 2 uM incubated for 24 hrs by Annexin V-FITC/PI staining based flow cytometric analysis (reference value: 2.19 %). It counts as functional. Background: A flow cytometer gives signals particle by particle.
Test [4] has as its system NB-4. The test can be described thus: Induction of cell differentiation in human NB4 cells assessed as morphological changes at 0.5 uM incubated for 6 days by Wright-Giemsa staining based analysis. It is filed as functional. The following applies: time 6.0 day.
Test [5] deals with ATRA-resistant NB4-LR2. The test can be described thus: Induction of cell differentiation in human ATRA-resistant NB4-LR2 cells at 0.5 uM incubated for 6 days by flow cytometric analysis. The following applies: time 6.0 day. It is filed as functional, cell-based.
Test [6] concerns NB-4. The test is described as follows: Induction of DNA damage in human NB4 cells assessed as increase in gamma-H2AX expression at 2 uM by Western blot analysis. It is filed as functional, cell-based.
Test [7] has as its system NB-4. The test can be described thus: Induction of apoptosis in human NB4 cells assessed as early apoptotic cells at 1 uM incubated for 24 hrs by Annexin V-FITC/PI staining based flow cytometric analysis (reference value: 4.37 %). It counts as functional.
For test [8], the system named is NB-4. The test can be described thus: Induction of apoptosis in human NB4 cells assessed as PARP cleavage at >1 uM incubated for 24 hrs by Western blot analysis. It counts as functional, cell-based.
Test [9] deals with NB-4. The test is described as follows: Induction of apoptosis in human NB4 cells assessed as increase in cleaved-PARP expression at 2 uM incubated for 3 to 24 hrs by Western blot analysis. It counts as functional, cell-based. The note with it: time 3-24 hrs.
In test [10] the test system is NB-4. The test can be described thus: Induction of cell death in M phase synchronized human NB4 cells assessed as reduction in mitotic cells at 0.5 uM preincubated for 4 days followed by release from thymidine block for 10 hrs by immunofluorescence staining based analysis. It is filed as functional. The note with it: time 106.0 hrs.
Test [11] is described as follows: Induction of apoptosis in human ATRA-resistant NB4-LR2 cells assessed as late apoptotic cells at 1 uM incubated for 24 hrs by Annexin V-FITC/PI staining based flow cytometric analysis (reference value: 7.23 %). It is filed as functional.
The subject of test [12] is NB-4. The test is described as follows: Antiproliferative activity against human NB4 cells assessed as inhibition of cell viability incubated for 3 days by CCK8 assay. The following applies: dose <= 3.5 µM, time 3.0 day. It is filed as functional, cell-based. Background: Tetrazolium dyes change colour on reduction, which living cells bring about.
The subject of test [13] is K562. The test can be described thus: Induction of apoptosis in human K562 cells assessed as early apoptotic cells at 2 uM incubated for 24 hrs by Annexin V-FITC/PI staining based flow cytometric analysis (reference value: 0.91 %). It is filed as functional.
The target in test [14] is T1, Retinoic acid receptor RXR-gamma (Homo sapiens) (UniProt P48443).
T1 sequence (whole entry): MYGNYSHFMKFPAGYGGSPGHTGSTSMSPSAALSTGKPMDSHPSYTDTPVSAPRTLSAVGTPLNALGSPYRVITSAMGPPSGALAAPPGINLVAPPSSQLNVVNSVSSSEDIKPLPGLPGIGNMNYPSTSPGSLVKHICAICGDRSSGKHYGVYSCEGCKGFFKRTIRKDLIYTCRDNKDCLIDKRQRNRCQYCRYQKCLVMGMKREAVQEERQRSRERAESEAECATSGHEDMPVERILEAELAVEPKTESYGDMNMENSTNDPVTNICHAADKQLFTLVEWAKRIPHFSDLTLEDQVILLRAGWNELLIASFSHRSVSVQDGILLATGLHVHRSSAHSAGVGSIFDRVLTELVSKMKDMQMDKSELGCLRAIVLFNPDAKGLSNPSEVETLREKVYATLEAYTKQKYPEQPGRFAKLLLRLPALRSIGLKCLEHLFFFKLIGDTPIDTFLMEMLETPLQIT
The test is described as follows: Competitive binding affinity to Gal4-fused full length RXRgamma LBD (unknown origin) transfected in HEK293T cells co-transfected with pG5luc reporter and Renilla-luc at 0.1 to 1 uM incubated for 12 hrs in presence of ATRA by luciferase reporter gene assay. It is filed as cell-based. The following applies: dose 0.1-1 µM.

Test [15] addresses T2, Retinoic acid receptor alpha (Homo sapiens, UniProt P10276).
T2 sequence (P10276 whole entry): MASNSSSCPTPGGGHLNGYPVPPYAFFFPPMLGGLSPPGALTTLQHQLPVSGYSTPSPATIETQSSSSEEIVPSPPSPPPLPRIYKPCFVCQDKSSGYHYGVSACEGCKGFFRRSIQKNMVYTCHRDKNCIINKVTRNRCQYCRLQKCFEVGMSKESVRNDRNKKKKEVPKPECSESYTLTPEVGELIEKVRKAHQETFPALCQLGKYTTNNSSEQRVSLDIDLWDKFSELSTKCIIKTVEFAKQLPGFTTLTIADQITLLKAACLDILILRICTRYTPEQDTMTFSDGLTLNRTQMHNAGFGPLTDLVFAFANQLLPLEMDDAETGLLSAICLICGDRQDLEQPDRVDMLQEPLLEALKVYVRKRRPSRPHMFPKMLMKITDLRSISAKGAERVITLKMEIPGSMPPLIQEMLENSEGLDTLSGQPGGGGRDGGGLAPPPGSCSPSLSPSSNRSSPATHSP
The test can be described thus: Binding affinity to N-terminal His-tagged human RARalpha LBD extracted from Escherichia coli BL21 (DE3) cells assessed as dissociation constant by fluorescence quenching assay.

In test [16] the test system is NB-4. The test is described as follows: Induction of apoptosis in human NB4 cells assessed as viable cells at 1 uM incubated for 24 hrs by Annexin V-FITC/PI staining based flow cytometric analysis (reference value: 92.36 %). It counts as functional. The following applies: read-out: Activity.
The test system of test [17] is NB-4. The test is described as follows: Induction of apoptosis in human NB4 cells assessed as late apoptotic cells at 1 uM incubated for 24 hrs by Annexin V-FITC/PI staining based flow cytometric analysis (reference value: 3.20 %). It counts as functional.
Test [18] is described as follows: Induction of apoptosis in human ATRA-resistant NB4-LR2 cells assessed as viable cells at 1 uM incubated for 24 hrs by Annexin V-FITC/PI staining based flow cytometric analysis (reference value: 87.30 %). It is filed as functional. The note with it: read-out: Activity.
Test [19] addresses T3, Retinoic acid receptor gamma (Homo sapiens, UniProt P13631).
T3 sequence (P13631 whole entry): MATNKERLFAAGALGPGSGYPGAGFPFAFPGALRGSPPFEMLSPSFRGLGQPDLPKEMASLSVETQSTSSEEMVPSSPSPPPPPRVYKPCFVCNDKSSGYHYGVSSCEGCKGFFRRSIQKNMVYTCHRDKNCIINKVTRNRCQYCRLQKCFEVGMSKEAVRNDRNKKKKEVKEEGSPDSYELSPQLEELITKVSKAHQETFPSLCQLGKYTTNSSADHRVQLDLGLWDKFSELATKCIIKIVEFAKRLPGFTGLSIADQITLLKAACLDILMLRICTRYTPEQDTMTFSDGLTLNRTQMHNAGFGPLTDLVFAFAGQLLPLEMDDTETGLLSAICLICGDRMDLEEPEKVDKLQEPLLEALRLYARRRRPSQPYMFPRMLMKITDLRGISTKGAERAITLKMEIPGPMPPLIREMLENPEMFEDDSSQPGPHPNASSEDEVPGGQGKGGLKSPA
The test can be described thus: Agonist activity at Gal4-fused full length human RARgamma LBD transfected in HEK293T cells co-transfected with pG5luc reporter and Renilla-luc assessed as transactivation incubated for 12 hrs by dual luciferase reporter gene assay. The note with it: read-out: EC50. It counts as cell-based.

In the case of `Cc1cc2c(cc1C(=O)/C(Br)=C\c1ccc(C(=O)O)cc1)C(C)(C)CCC2(C)C`, the outcome with ATRA-resistant NB4-LR2 [1], with NB-4 [4], in the test on NB-4 [8], with NB-4 [9] and in the test on NB-4 [10] was Active. Also, the Activity in the test on NB-4 [2] is reported as 72%; with K562 [3], 3.03%; with ATRA-resistant NB4-LR2 [5], “Minimal_effect”; in the test with NB-4 [6], “Active; Dna Damage Detected When Apoptosis Occurred”; in the test with NB-4 [7] it was 12.39%; in test [11], 11.42%. The Activity entry with NB-4 [12] was “Dose-dependent-effect”; in the test with K562 [13], 1.05%; in [14], “Not active; No Significant Competitive Effect On Atra Activation Observed”; in the test on NB-4 [17], 10.49%. Moreover, the Kd in [15] was 553 nM. Moreover, the viability at 1 µM with NB-4 [16] is 76.7%; in [18], 67.8%. Besides, in test [19], the EC50 was 1140 nM.

Consider `Cc1cc2c(cc1C(=O)/C(Br)=C/c1ccc(C(=O)O)cc1)C(C)(C)CCC2(C)C`, for which the result with ATRA-resistant NB4-LR2 [1], in the test with NB-4 [4], with NB-4 [8], in the test with NB-4 [9] and in the test with NB-4 [10] was Active. Also, the Activity with NB-4 [2] is recorded as 71%; with K562 [3] it was 2.27%; with ATRA-resistant NB4-LR2 [5] it was “Minimal_effect”; with NB-4 [6], “Active; Dna Damage Detected When Apoptosis Occurred”; with NB-4 [7], 23.14%; in test [11], 13.3%. The Activity entry in the test on NB-4 [12] is “Dose-dependent-effect”; in the test on K562 [13] it was 1.18%; in test [14], “Not active; No Significant Competitive Effect On Atra Activation Observed”; in the test with NB-4 [17], 15.77%. Besides, the Kd in test [15] came out at 433 nM. The viability at 1 µM in the test on NB-4 [16] worked out at 59.8%; in [18] it was 56.2%. Further, the EC50 in [19] amounted to 2240 nM.

As usually defined, the Kd is the equilibrium constant for the complex coming apart. Usually EC50 stands for the concentration needed to bring the measured effect to its halfway point.
